BindingDB's records for doi:10.1016/s0960-894x(00)00385-1 (Merck Research Laboratories, 2001)

Test: Inhibition of aggregation of human gel-filtered platelets measured by light transmittance method at 37 degrees C.

IC50 [nM] | SMILES
13 | O=C(NC[C@H](NS(=O)(=O)c1ccccc1)C(=O)O)c1ccc(OCCC2CCNCC2)cc1 [2-Benzenesulfonylamino-3-[4-(2-piperidin-4-yl-ethoxy)-benzoylamino]-propionic acid]
51 | C#CC(CCCN1CCC[C@@H](CCC2CCNCC2)C1=O)CC(=O)O (stereo partly drawn) [3-Ethynyl-6-[(R)-2-oxo-3-(2-piperidin-4-yl-ethyl)-piperidin-1-yl]-hexanoic acid]
32 | C[C@H](CC(=O)O)NC(=O)CN1CCC[C@@H](CCC2CCNCC2)C1=O [3-{2-[2-Oxo-3-(2-piperidin-4-yl-ethyl)-piperidin-1-yl]-acetylamino}-butyric acid (L-734217)]
15 | C#CC(CC(=O)O)NC(=O)CN(C(=O)c1cccc(C2CCNCC2)c1)C1CC1 (stereo not drawn) [3-{2-[Cyclopropyl-(3-piperidin-4-yl-benzoyl)-amino]-acetylamino}-pent-4-ynoic acid]
65 | CC(CC(=O)O)NC(=O)c1ccc2c(c1)C(=O)N(CCC1CCNCC1)C2 (stereo not drawn) [3-{[3-Oxo-2-(2-piperidin-4-yl-ethyl)-2,3-dihydro-1H-isoindole-5-carbonyl]-amino}-butyric acid]
57 | C[C@@H](/C=C/CN1CCC[C@@H](CCC2CCNCC2)C1=O)CC(=O)O [(E)-(R)-3-Methyl-6-[(R)-2-oxo-3-(2-piperidin-4-yl-ethyl)-piperidin-1-yl]-hex-4-enoic acid]
35 | O=C(CN1CCc2ccc(N3CCNCC3)cc2C1=O)NC[C@H](NS(=O)(=O)c1ccccc1)C(=O)O [(S)-2-Benzenesulfonylamino-3-[2-(1-oxo-7-piperazin-1-yl-3,4-dihydro-1H-isoquinolin-2-yl)-acetylamino]-propionic acid]
11 | O=C(CN1CCC[C@@H](CCC2CCNCC2)C1=O)NC[C@H](NS(=O)(=O)c1ccccc1)C(=O)O [(S)-2-Benzenesulfonylamino-3-{2-[(R)-2-oxo-3-(2-piperidin-4-yl-ethyl)-piperidin-1-yl]-acetylamino}-propionic acid]
8 | O=C(NC[C@H](NS(=O)(=O)c1ccccc1)C(=O)O)c1ccc2c(c1)C(=O)N(CCC1CCNCC1)C2 [(S)-2-Benzenesulfonylamino-3-{[3-oxo-2-(2-piperidin-4-yl-ethyl)-2,3-dihydro-1H-isoindole-5-carbonyl]-amino}-propionic acid]
10 | O=C(NC[C@H](NS(=O)(=O)c1ccccc1)C(=O)O)c1cc2cc(OCCC3CCNCC3)ccc2[nH]1 [(S)-2-Benzenesulfonylamino-3-{[5-(2-piperidin-4-yl-ethoxy)-1H-indole-2-carbonyl]-amino}-propionic acid]
19 | C#C[C@H](CC(=O)O)NC(=O)C[C@H]1CCCN(CCc2ccnc(N)c2)C1=O [(S)-3-(2-{(R)-1-[2-(2-Amino-pyridin-4-yl)-ethyl]-2-oxo-piperidin-3-yl}-acetylamino)-pent-4-ynoic acid]
28 | C#C[C@H](CC(=O)O)NC(=O)CN1CCC[C@@H](CCc2ccnc(N)c2)C1=O [(S)-3-(2-{(R)-3-[2-(2-Amino-pyridin-4-yl)-ethyl]-2-oxo-piperidin-1-yl}-acetylamino)-pent-4-ynoic acid]
27 | C#C[C@H](CC(=O)O)NC(=O)c1ccc2c(c1)C(=O)N(CCc1ccnc(N)c1)C2 [(S)-3-({2-[2-(2-Amino-pyridin-4-yl)-ethyl]-3-oxo-2,3-dihydro-1H-isoindole-5-carbonyl}-amino)-pent-4-ynoic acid]
13 | O=C(O)C[C@H](NC(=O)CN1CCc2ccc(N3CCNCC3)cc2C1=O)c1cccnc1 [(S)-3-[2-(1-Oxo-7-piperazin-1-yl-3,4-dihydro-1H-isoquinolin-2-yl)-acetylamino]-3-pyridin-3-yl-propionic acid]
9 | O=C(O)C[C@H](NC(=O)C[C@H]1CCCN(CCC2CCNCC2)C1=O)c1cccnc1 [(S)-3-{2-[(R)-2-Oxo-1-(2-piperidin-4-yl-ethyl)-piperidin-3-yl]-acetylamino}-3-pyridin-3-yl-propionic acid]
15 | C#C[C@H](CC(=O)O)NC(=O)C[C@H]1CCCN(CCC2CCNCC2)C1=O [(S)-3-{2-[(R)-2-Oxo-1-(2-piperidin-4-yl-ethyl)-piperidin-3-yl]-acetylamino}-pent-4-ynoic acid]
10 | O=C(O)C[C@H](NC(=O)CN1CCC[C@@H](CCC2CCNCC2)C1=O)c1cccnc1 [(S)-3-{2-[(R)-2-Oxo-3-(2-piperidin-4-yl-ethyl)-piperidin-1-yl]-acetylamino}-3-pyridin-3-yl-propionic acid]
13 | C#C[C@H](CC(=O)O)NC(=O)CN1CCC[C@@H](CCC2CCNCC2)C1=O [(S)-3-{2-[(R)-2-Oxo-3-(2-piperidin-4-yl-ethyl)-piperidin-1-yl]-acetylamino}-pent-4-ynoic acid]
8 | Cc1ccc(S(=O)(=O)N[C@@H](CNC(=O)c2cc3n(n2)CCCN(CCC2CCNCC2)C3=O)C(=O)O)cc1 [(S)-3-{[4-Oxo-5-(2-piperidin-4-yl-ethyl)-5,6,7,8-tetrahydro-4H-1,5,8a-triaza-azulene-2-carbonyl]-amino}-2-(toluene-4-sulfonylamino)-propionic acid]
81 | O=C(O)C[C@@H](CO)NC(=O)CN1CCc2ccc(N3CCNCC3)cc2C1=O [(S)-4-Hydroxy-3-[2-(1-oxo-7-piperazin-1-yl-3,4-dihydro-1H-isoquinolin-2-yl)-acetylamino]-butyric acid]
8 | O=C(O)C[C@@H](CO)NC(=O)c1ccc2c(c1)C(=O)N(CCC1CCNCC1)C2 [(S)-4-Hydroxy-3-{[3-oxo-2-(2-piperidin-4-yl-ethyl)-2,3-dihydro-1H-isoindole-5-carbonyl]-amino}-butyric acid]
15 | C#C[C@H](CC(=O)O)NC(=O)CN1CCc2ccc(N3CCNCC3)cc2C1=O [L-767679]

SMILES | IC50 [nM]
O=C(O)CCNC(=O)CN1CCc2ccc(N3CCNCC3)cc2C1=O [3-[2-(1-Oxo-7-piperazin-1-yl-3,4-dihydro-1H-isoquinolin-2-yl)-acetylamino]-propionic acid] | 140
